The values that follow come from US20120058135A1, “Identification and characterization of racemases, definition of protein signatures, and a test for detecting D-amino acid and for screening molecules capable of inhibiting the activity of racemase, especially proline racemase” (Institut Pasteur, priority 2010, published 2012).

SMILES strings stand for the structures. “And” between values parts separate entries of the source, which are not always exact repeats. Equal values may be shown once.

Usually Ki stands for a dissociation constant, usually derived from enzyme kinetics or from competition with a known ligand.

For data set [1], the target named is T1, D-AAO (Sus scrofa, UniProt P00371).
T1 construct: purchased Sigma A-5222; host or cells: swine kidney
T1 sequence (P00371 whole entry): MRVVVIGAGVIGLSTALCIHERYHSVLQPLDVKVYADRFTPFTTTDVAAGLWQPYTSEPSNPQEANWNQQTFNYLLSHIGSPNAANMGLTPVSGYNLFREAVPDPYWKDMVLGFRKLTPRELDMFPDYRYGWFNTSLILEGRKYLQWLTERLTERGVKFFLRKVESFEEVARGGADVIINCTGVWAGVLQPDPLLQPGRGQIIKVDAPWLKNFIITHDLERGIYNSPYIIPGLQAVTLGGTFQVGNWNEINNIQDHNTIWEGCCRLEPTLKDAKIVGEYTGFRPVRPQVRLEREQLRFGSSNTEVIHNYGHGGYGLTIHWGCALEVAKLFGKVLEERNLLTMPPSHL
As to the kind of experiment: D-AAO microplate test for detection of D-amino acids. In kind it is biochemical, swine. To be noted: raw OD. From the text: The D-AAO/HRP test described here above can also be used for this purpose with slight modifications. For that purpose, the racemase reaction step should be skipped and the microplate test should start straightforward at the II-1-2.1-2 step described above with the following remarks:
1) Standard: It should not be an equimolar mixture of D- and L-amino acid, but rather a serial dilution of D-Amino acids. The choice of amino acid is made according to the interest of the D-amino acid under investigation. The final volume in wells should be of 87 μl.
2) Negative control: It is made with the L-enantiomer of the D-amino acid under investigation. The final volume should be 87 μl.
3) Blank: It is made with 87 μl buffer*. (See paragraph II.1.1 Materials.)
4) Samples: The samples to be tested should be adjusted to pH 8.3 with buffer* and their final volumes should be of 87 μl per well.
5) Then, the procedure follows steps 3) to 6), as above.
Different L- and D-amino acids were tested, namely Tyrosine (Tyr), Valine (Val), Threonine (Thr), Glutamic acid (Glu), Lysine (Lys) and Tryptophan (Try).

In data set [2] the target is D-AAO/HRP (Sus scrofa, UniProt P00371). Put plainly: Interference with the D-AAO/HRP reaction. It counts as biochemical, swine.
Sequence of D-AAO/HRP (P00371 whole entry): as above
In data set [3] the target is native protein obtained from a soluble epimastigote fraction (proline racemase) (Trypanosoma cruzi, UniProt Q868H8). Put plainly: Kinetic assays using the native protein from a soluble epimastigote fraction. It counts as biochemical. The text has this: The progress of racemization reaction was monitored polarimetrically, as previously described (13). […] Values obtained were confirmed by using the Kaleïdagraph® program and Michaelis-Menten equation. […] C.
Sequence of native protein obtained from a soluble epimastigote fraction (proline racemase) (Q868H8 whole entry): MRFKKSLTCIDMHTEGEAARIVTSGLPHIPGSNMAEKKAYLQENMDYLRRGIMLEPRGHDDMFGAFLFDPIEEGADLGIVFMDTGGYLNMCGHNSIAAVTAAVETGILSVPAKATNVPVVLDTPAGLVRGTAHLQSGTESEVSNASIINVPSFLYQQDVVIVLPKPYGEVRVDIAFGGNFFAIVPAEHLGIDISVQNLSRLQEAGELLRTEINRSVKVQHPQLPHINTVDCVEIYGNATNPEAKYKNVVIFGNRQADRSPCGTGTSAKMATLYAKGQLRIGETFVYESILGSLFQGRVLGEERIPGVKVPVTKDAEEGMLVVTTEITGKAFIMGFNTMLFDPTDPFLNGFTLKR

For data set [4], the target named is T2, CsPR (Acetoanaerobium sticklandii, UniProt E3PTZ4).
T2 sequence (E3PTZ4 1-335): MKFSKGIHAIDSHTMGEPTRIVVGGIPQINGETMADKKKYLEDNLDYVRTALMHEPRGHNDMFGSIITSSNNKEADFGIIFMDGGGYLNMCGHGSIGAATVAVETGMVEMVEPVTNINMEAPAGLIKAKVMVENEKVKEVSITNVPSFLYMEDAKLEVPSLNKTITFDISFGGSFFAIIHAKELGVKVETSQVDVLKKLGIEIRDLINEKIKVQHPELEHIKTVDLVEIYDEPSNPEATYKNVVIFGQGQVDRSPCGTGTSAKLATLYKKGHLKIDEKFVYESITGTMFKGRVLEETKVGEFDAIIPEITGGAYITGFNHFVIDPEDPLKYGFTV
As to conditions: cited from earlier work.

Data set [5] concerns B cells. As to conditions: TcPRAC inhibited by the compound; cited from earlier work.
Data set [6] has as its system non-infected monkey cell cultures.

Take `NCCCC[C@H](N)C(=O)O` [L-Lys, Lysine]: the “Optical density at 490 nm after D-AAO reaction” value (shortened to “Optical density at 490 nm”) in data set [1] (L-enantiomers, 12.5 mM) is 0.125 and 0.131.

With `N[C@@H](Cc1ccc(O)cc1)C(=O)O` [D-Tyr, Tyrosine], the “Optical density at 490 nm” value in data set [1] (D-enantiomers, 6.25 mM) is 1.317 and 0.991.

Consider `O=C(O)[C@@H]1CCCN1` [L-Proline], for which the “effect on D-AAO/HRP reaction” value in data set [2] is reported as “Inhibits”.

On to `O=C(O)[C@H]1CCCN1` [D-pro, D-Proline], for which the “Optical density at 490 nm” value in data set [1] (0.05 mM) was 0.173; in data set [1] (0.09 mM), 0.213 and 0.215; in data set [1] (0.19 mM), 0.308 and 0.32; in data set [1] (0.39 mM), 0.496 and 0.504; in data set [1] (0.77 mM) it was 0.809 and 0.824; in data set [1] (1.55 mM) it was 1.234 and 1.221. Also, the “Optical density at 490 nm” value in data set [1] (3.09 mM) is 1.716 and 1.879; in data set [1] (6.19 mM), 1.983 and 1.949; in data set [1] (12.37 mM), 1.814 and 1.976; in data set [1] (24.75 mM) it was 1.757 and 1.885; in data set [1] (49.5 mM) it was 1.961 and 2.004.

Regarding `C[C@@H](O)[C@H](N)C(=O)O` [L-Thr, Threonine], the “Optical density at 490 nm” value in data set [1] (L-enantiomers, 12.5 mM) was 0.124 and 0.128.

For the compound `N[C@@H](Cc1c[nH]c2ccccc12)C(=O)O` [L-Try, Tryptophan], in data set [1] (L-enantiomers, 12.5 mM), the “Optical density at 490 nm” value was 0.131 and 0.138.

Turning to `O=C(O)c1ccc[nH]1` [PAC, pyrrole-2-carboxylic acid], the Ki in data set [3] is 1.15 µM; in data set [4] it was 18 µM. The “TcPRAC B cell mitogenic ability” value in data set [5] is “total loss of TcPRAC B cell mitogenic ability”. Further, the “interference with cellular growth” value in data set [6] was “do not interfere with cellular growth”. Also, the “effect on D-AAO/HRP reaction” value in data set [2] is given as “does not influence DAAO/HRP reaction”.

Take `N[C@@H](CCC(=O)O)C(=O)O` [D-Glu, Glutamic acid]: the “Optical density at 490 nm” value in data set [1] (D-enantiomers, 6.25 mM) is 0.147 and 0.116.

For the compound `NCCCC[C@H](N)C(=O)O` [D-Lys, Lysine], the “Optical density at 490 nm” value in data set [1] (D-enantiomers, 6.25 mM) is 0.243 and 0.157.

Regarding `N[C@@H](CCC(=O)O)C(=O)O` [L-Glu, Glutamic acid], in data set [1] (L-enantiomers, 12.5 mM), the “Optical density at 490 nm” value is 0.131 and 0.141.

`N[C@@H](Cc1c[nH]c2ccccc12)C(=O)O` [D-Try, Tryptophan]: the “Optical density at 490 nm” value in data set [1] (D-enantiomers, 6.25 mM) was 0.615 and 0.662.

Turning to `CC(C)[C@H](N)C(=O)O` [D-Val, Valine], in data set [1] (D-enantiomers, 6.25 mM), the “Optical density at 490 nm” value is 1.683 and 1.612.

Consider `C[C@@H](O)[C@H](N)C(=O)O` [D-Thr, Threonine], for which the “Optical density at 490 nm” value in data set [1] (D-enantiomers, 6.25 mM) is 0.215 and 0.157.

In the case of `CC(C)[C@H](N)C(=O)O` [L-Val, Valine], the “Optical density at 490 nm” value in data set [1] (L-enantiomers, 12.5 mM) was 0.135 and 0.129.

For the compound `N[C@@H](Cc1ccc(O)cc1)C(=O)O` [L-Tyr, Tyrosine], the “Optical density at 490 nm” value in data set [1] (L-enantiomers, 12.5 mM) is 0.193 and 0.141.
